Reference: PubChem BioAssay AID1963854 (Molecular Pharmacology Branch, DTP, NCI, 2024)

Test system: 186277-243-T-J2-PDC complex spheroid viability
Assay: Anticancer human tumor 186277-243-T-J2-PDC patient-derived colon adenocarcinoma cell line growth inhibition [POLQ]
Settings: for IC50: curve of first compound; for viability, T/C: stronger effect = lower value
Summary of the method: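 Growth inhibition in 3D: complex spheroids (tumor PDC, HUVEC, MSC) treated with POLQ inhibitor combinations; where Cmax unknown, highest tested concentration 10 microM, except SN-38 at 1 microM.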

[1] = second compound 0.0316 µM, first compound 0.0316 µM
[2] = second compound 0.0316 µM, first compound 0.1 µM
[3] = second compound 0.0316 µM, first compound 0.316 µM
[4] = second compound 0.0316 µM, first compound 1 µM
[5] = second compound 0.0316 µM, first compound 3.16 µM
[6] = second compound 0.0316 µM, first compound 10 µM
[7] = second compound 0.1 µM, first compound 0.0316 µM
[8] = second compound 0.1 µM, first compound 0.1 µM
[9] = second compound 0.1 µM, first compound 0.316 µM
[10] = second compound 0.1 µM, first compound 1 µM
[11] = second compound 0.1 µM, first compound 3.16 µM
[12] = second compound 0.1 µM, first compound 10 µM
[13] = second compound 0.316 µM, first compound 0.0316 µM
[14] = second compound 0.316 µM, first compound 0.1 µM
[15] = second compound 0.316 µM, first compound 0.316 µM
[16] = second compound 0.316 µM, first compound 1 µM
[17] = second compound 0.316 µM, first compound 3.16 µM
[18] = second compound 0.316 µM, first compound 10 µM
[19] = second compound 1 µM, first compound 0.0316 µM
[20] = second compound 1 µM, first compound 0.1 µM
[21] = second compound 1 µM, first compound 0.316 µM
[22] = second compound 1 µM, first compound 1 µM
[23] = second compound 1 µM, first compound 3.16 µM
[24] = second compound 1 µM, first compound 10 µM
[25] = second compound 3.16 µM, first compound 0.0316 µM
[26] = second compound 3.16 µM, first compound 0.1 µM
[27] = second compound 3.16 µM, first compound 0.316 µM
[28] = second compound 3.16 µM, first compound 1 µM
[29] = second compound 3.16 µM, first compound 3.16 µM
[30] = second compound 3.16 µM, first compound 10 µM
[31] = second compound 10 µM, first compound 0.0316 µM
[32] = second compound 10 µM, first compound 0.1 µM
[33] = second compound 10 µM, first compound 0.316 µM
[34] = second compound 10 µM, first compound 1 µM
[35] = second compound 10 µM, first compound 3.16 µM
[36] = second compound 10 µM, first compound 10 µM
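Further: spheroids exposed to compounds for seven days.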
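Wherever viability, T/C is given: 100% = DMSO vehicle control viability.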

CC1COCCN1c1cc(C2(O)CC3CCC(C2)O3)c2cnn(-c3ccn[nH]3)c2n1 (stereo unspecified) + Nc1ccc(C#CCN(C(=O)Cc2ncc(C(F)(F)F)cc2C(F)(F)F)c2ccc(F)cc2)nn1 was tested. Which IC50 (second compound 0.0316 µM) did it give?
The IC50 was 67.1 nM.

And the IC50 (second compound 0.1 µM)?
The IC50 was 69 nM.

What about the IC50 (second compound 0.316 µM) of the same molecule?
Its IC50 is 71.3 nM.

And the IC50 (second compound 1 µM)?
The IC50 was 66.4 nM.

And the IC50 (second compound 3.16 µM)?
The IC50 was 64.4 nM.

What about the IC50 (second compound 10 µM) of the same molecule?
Its IC50 is 55.2 nM.

And the viability, T/C [1]?
The viability, T/C was 107%.

And the viability, T/C [2]?
Its viability, T/C is 19.5%.

And the viability, T/C [3]?
The viability, T/C was 9.32%.

What about the viability, T/C [4] of the same molecule?
Its viability, T/C is 6.59%.

And the viability, T/C [5]?
Its viability, T/C is 9.6%.

And the viability, T/C [6]?
The viability, T/C was 7.56%.

And the viability, T/C [7]?
Its viability, T/C is 113%.

What about the viability, T/C [8] of the same molecule?
Its viability, T/C is 20.2%.

And the viability, T/C [9]?
The viability, T/C was 8.44%.

And the viability, T/C [10]?
The viability, T/C was 6.39%.

And the viability, T/C [11]?
Its viability, T/C is 8.6%.

What about the viability, T/C [12] of the same molecule?
The viability, T/C was 8.62%.

What about the viability, T/C [13] of the same molecule?
Its viability, T/C is 116%.

What about the viability, T/C [14] of the same molecule?
The viability, T/C was 22.6%.

And the viability, T/C [15]?
The viability, T/C was 8.74%.

And the viability, T/C [16]?
The viability, T/C was 6.2%.

What about the viability, T/C [17] of the same molecule?
The viability, T/C was 8.36%.

And the viability, T/C [18]?
The viability, T/C was 8.22%.

What about the viability, T/C [19] of the same molecule?
Its viability, T/C is 109%.

What about the viability, T/C [20] of the same molecule?
The viability, T/C was 17.5%.

What about the viability, T/C [21] of the same molecule?
The viability, T/C was 8.98%.

And the viability, T/C [22]?
Its viability, T/C is 6.1%.

And the viability, T/C [23]?
The viability, T/C was 8.12%.

And the viability, T/C [24]?
Its viability, T/C is 7.01%.

What about the viability, T/C [25] of the same molecule?
The viability, T/C was 102%.

And the viability, T/C [26]?
Its viability, T/C is 17.9%.

And the viability, T/C [27]?
The viability, T/C was 8.53%.

What about the viability, T/C [28] of the same molecule?
The viability, T/C was 7.23%.

What about the viability, T/C [29] of the same molecule?
Its viability, T/C is 8.02%.

What about the viability, T/C [30] of the same molecule?
The viability, T/C was 9.12%.

What about the viability, T/C [31] of the same molecule?
The viability, T/C was 85.1%.

What about the viability, T/C [32] of the same molecule?
Its viability, T/C is 12.7%.

And the viability, T/C [33]?
Its viability, T/C is 8.17%.

And the viability, T/C [34]?
The viability, T/C was 5.8%.

And the viability, T/C [35]?
The viability, T/C was 8.58%.

What about the viability, T/C [36] of the same molecule?
The viability, T/C was 6.5%.

What does the source list for CCc1c2c(nc3ccc(O)cc13)-c1cc3c(c(=O)n1C2)COC(=O)[C@]3(O)CC + COC1C(OC(N)=O)C(O)C(Oc2ccc3c(O)c(NC(=O)c4ccc(O)c(CC=C(C)C)c4)c(=O)oc3c2C)OC1(C)C?
IC50 (second compound 0.0316 µM): 6.67 nM; IC50 (second compound 0.1 µM): 6.31 nM; IC50 (second compound 0.316 µM): 6.22 nM; IC50 (second compound 1 µM): 5.81 nM; IC50 (second compound 3.16 µM): 4.06 nM; IC50 (second compound 10 µM): 4.2 nM; viability, T/C (second compound 0.0316 µM, first compound 0.00316 µM): 60.8%; viability, T/C (second compound 0.0316 µM, first compound 0.01 µM): 44.3%; viability, T/C [1]: 21.4%; viability, T/C [2]: 11.2%; viability, T/C [3]: 8.38%; viability, T/C [4]: 6.45%; viability, T/C (second compound 0.1 µM, first compound 0.00316 µM): 65%; viability, T/C (second compound 0.1 µM, first compound 0.01 µM): 39.7%; viability, T/C [7]: 21.9%; viability, T/C [8]: 10.4%; viability, T/C [9]: 8.32%; viability, T/C [10]: 6.78%; viability, T/C (second compound 0.316 µM, first compound 0.00316 µM): 61.1%; viability, T/C (second compound 0.316 µM, first compound 0.01 µM): 42%; viability, T/C [13]: 22.4%; viability, T/C [14]: 10.3%; viability, T/C [15]: 7.76%; viability, T/C [16]: 6.8%; viability, T/C (second compound 1 µM, first compound 0.00316 µM): 61.8%; viability, T/C (second compound 1 µM, first compound 0.01 µM): 39.2%; viability, T/C [19]: 21.6%; viability, T/C [20]: 10.2%; viability, T/C [21]: 8.22%; viability, T/C [22]: 6.39%; viability, T/C (second compound 3.16 µM, first compound 0.00316 µM): 53.1%; viability, T/C (second compound 3.16 µM, first compound 0.01 µM): 38.8%; viability, T/C [25]: 19.7%; viability, T/C [26]: 9.79%; viability, T/C [27]: 7.9%; viability, T/C [28]: 6.76%; viability, T/C (second compound 10 µM, first compound 0.00316 µM): 52.9%; viability, T/C (second compound 10 µM, first compound 0.01 µM): 41.4%; viability, T/C [31]: 19%; viability, T/C [32]: 8.88%; viability, T/C [33]: 8.76%; viability, T/C [34]: 6.74%

Which IC50 (second compound 0.0316 µM) does the source give for O=C(Nc1ccc(O)c(NS(=O)(=O)c2ccc(F)cc2)c1)c1ccc(-c2ccccc2)cc1 + Nc1ccc(C#CCN(C(=O)Cc2ncc(C(F)(F)F)cc2C(F)(F)F)c2ccc(F)cc2)nn1 here?
The IC50 was > 10000 nM.

What about the IC50 (second compound 0.1 µM) of the same molecule?
Its IC50 is > 10000 nM.

And the IC50 (second compound 0.316 µM)?
The IC50 was > 10000 nM.

What about the IC50 (second compound 1 µM) of the same molecule?
The IC50 was > 10000 nM.

What about the IC50 (second compound 3.16 µM) of the same molecule?
The IC50 was > 10000 nM.

What about the IC50 (second compound 10 µM) of the same molecule?
Its IC50 is > 10000 nM.

And the viability, T/C [1]?
Its viability, T/C is 117%.

What about the viability, T/C [2] of the same molecule?
Its viability, T/C is 91%.

And the viability, T/C [3]?
The viability, T/C was 92.4%.

And the viability, T/C [4]?
The viability, T/C was 89.4%.

And the viability, T/C [5]?
Its viability, T/C is 99.8%.

And the viability, T/C [6]?
Its viability, T/C is 110%.

What about the viability, T/C [7] of the same molecule?
The viability, T/C was 95.5%.

And the viability, T/C [8]?
Its viability, T/C is 88.8%.

What about the viability, T/C [9] of the same molecule?
Its viability, T/C is 96.7%.

And the viability, T/C [10]?
The viability, T/C was 86.5%.

What about the viability, T/C [11] of the same molecule?
The viability, T/C was 89.9%.

What about the viability, T/C [12] of the same molecule?
Its viability, T/C is 98%.

What about the viability, T/C [13] of the same molecule?
Its viability, T/C is 97.6%.

What about the viability, T/C [14] of the same molecule?
The viability, T/C was 96%.

And the viability, T/C [15]?
Its viability, T/C is 97.5%.

And the viability, T/C [16]?
Its viability, T/C is 96.7%.

What about the viability, T/C [17] of the same molecule?
The viability, T/C was 101%.

And the viability, T/C [18]?
Its viability, T/C is 107%.

What about the viability, T/C [19] of the same molecule?
The viability, T/C was 101%.

And the viability, T/C [20]?
The viability, T/C was 96.3%.

And the viability, T/C [21]?
The viability, T/C was 92.3%.

And the viability, T/C [22]?
The viability, T/C was 81.9%.

And the viability, T/C [23]?
Its viability, T/C is 103%.

And the viability, T/C [24]?
Its viability, T/C is 99.9%.

And the viability, T/C [25]?
Its viability, T/C is 96.3%.

What about the viability, T/C [26] of the same molecule?
Its viability, T/C is 80.8%.

And the viability, T/C [27]?
Its viability, T/C is 104%.

And the viability, T/C [28]?
Its viability, T/C is 96.7%.

And the viability, T/C [29]?
The viability, T/C was 103%.

And the viability, T/C [30]?
The viability, T/C was 95.9%.

What about the viability, T/C [31] of the same molecule?
The viability, T/C was 103%.

And the viability, T/C [32]?
Its viability, T/C is 87.5%.

What about the viability, T/C [33] of the same molecule?
The viability, T/C was 91.2%.

And the viability, T/C [34]?
Its viability, T/C is 104%.

And the viability, T/C [35]?
Its viability, T/C is 97.2%.

And the viability, T/C [36]?
The viability, T/C was 99.2%.
